Patent US10961256B2, “PRMT5 inhibitors” (priority 2016, dated 2021)

Experiments:
[1] = biological target: Full-length PRMT5 enzyme co-expressed with His6-MEP50 (Homo sapiens (Human), UniProt O14744); experiment: PRMT5 Biochemical Assay; settings: histone H4 derived peptide substrate, Transcreener EPIGEN methyltransferase assay, 4 hours at 37 degree Celsius
Experimental: Compounds of the invention may be tested for in vitro activity in the following assay: A histone H4 derived peptide is used as substrate (amino acid sequence: […]NH2). Full-length PRMT5 enzyme (NCBI Reference sequence NP_006100.2) was co-expressed with His6-MEP50 in insect cells and purified via Nickel immobilized metal affinity and gel filtration chromatography (“the enzyme”).
The 6 μL reactions are run in Greiner brand black 384-well low volume assay plates. All reactions contained assay buffer (phosphate buffered saline, 0.01% (v/v) Tween-20, 0.01% (w/v) albumin from chicken egg white, 1 mM Dithiothreitol, 1 μM peptide substrate, 1 μM S-Adenosyl methionine, and 15 ng/reaction enzyme, with the enzyme being omitted from negative control reactions. Compounds were added in a volume of 100 nL from dilution series prepared in DMSO, positive and negative control reactions receiving the same volume DMSO without compound. The plates were sealed with adhesive seals and incubated for 4 hours at 37 degree Celsius. Reaction progress was measured using the Transcreener™ EPIGEN methyltransferase assay (BellBrook Labs, Madison, Wis.) as recommended by the manufacturer. To each reaction 2 μL detection mix were added, containing coupling enzymes, fluorescence polarisation tracer, and AMP antibody. Plates were incubated for 90 minutes before being read on a PerkinElmer EnVision™ plate reader in fluorescence polarisation mode.

[2] = tested on: symmetrical dimethylation of arginine (Di-Methyl Histone H4 Arginine 3) in TE11 cells; experiment: cells; settings: Homo sapiens, TE-11, 72 h
Experimental: Compounds of the invention may be tested for potency to inhibit symmetrical dimethylation of arginine in the following assay:
The cell line TE11 was seeded at a density of 6,000 cells per well in 96 well optical quality tissue culture plates in DME medium and 10% foetal bovine serum, and allowed to adhere for 5 hours under standard culture conditions (37 degree Celsius, 5% CO2). […] After incubation for 72 hours, the cells were fixed with 3.7% formaldehyde in PBS for 30 minutes at room temperature, washed with phosphate buffer saline and blocked with Odyssey blocking buffer (LI-COR, Lincoln, Nebr.). Rabbit anti-Di-Methyl Histone H4 Arginine 3 specific antibody (Epigentek) in Odyssey blocking buffer was added and incubated for 14 hours at 4 degree Celsius.

Chain of Full-length PRMT5 enzyme co-expressed with His6-MEP50 (O14744 whole entry): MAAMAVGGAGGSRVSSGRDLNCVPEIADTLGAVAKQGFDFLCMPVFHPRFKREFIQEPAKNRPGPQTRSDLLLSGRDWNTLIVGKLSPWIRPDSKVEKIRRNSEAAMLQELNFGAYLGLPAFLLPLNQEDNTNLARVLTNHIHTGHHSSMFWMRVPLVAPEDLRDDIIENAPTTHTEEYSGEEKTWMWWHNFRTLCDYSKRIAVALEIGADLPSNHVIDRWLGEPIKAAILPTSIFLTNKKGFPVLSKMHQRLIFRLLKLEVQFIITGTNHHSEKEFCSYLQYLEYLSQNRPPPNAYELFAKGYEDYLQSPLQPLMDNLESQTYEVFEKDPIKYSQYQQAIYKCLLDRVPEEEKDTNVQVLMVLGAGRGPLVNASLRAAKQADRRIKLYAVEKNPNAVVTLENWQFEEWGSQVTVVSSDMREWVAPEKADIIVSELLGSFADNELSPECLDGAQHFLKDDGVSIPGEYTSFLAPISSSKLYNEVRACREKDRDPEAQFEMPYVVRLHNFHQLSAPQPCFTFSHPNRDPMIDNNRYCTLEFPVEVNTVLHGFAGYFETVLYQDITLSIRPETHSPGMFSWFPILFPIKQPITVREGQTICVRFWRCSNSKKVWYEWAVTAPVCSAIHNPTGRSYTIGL
Chain of Full-length PRMT5 enzyme co-expressed with His6-MEP50 (Q9BQA1 whole entry partner): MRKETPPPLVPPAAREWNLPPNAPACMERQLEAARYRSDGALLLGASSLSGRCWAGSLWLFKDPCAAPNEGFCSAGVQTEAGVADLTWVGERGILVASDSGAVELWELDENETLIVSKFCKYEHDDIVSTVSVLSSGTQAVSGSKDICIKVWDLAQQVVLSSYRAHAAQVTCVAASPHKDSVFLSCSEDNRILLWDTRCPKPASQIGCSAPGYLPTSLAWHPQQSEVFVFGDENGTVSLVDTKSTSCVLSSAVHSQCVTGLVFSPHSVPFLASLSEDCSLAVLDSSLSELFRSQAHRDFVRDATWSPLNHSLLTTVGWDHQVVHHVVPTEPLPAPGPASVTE

CCc1nn(C[C@@H](O)CNC2Cc3ccccc3C2)c(=O)c2ccc(C(=O)N3C4CCC3COC4)cc12 [Compound 3, 6-(3-Oxa-8-azabicyclo[3.2.1]octane-8-carbonyl)-2-((S)-3-((2,3-dihydro-1H-Inden-2-yl)amino)-2-hydroxypropyl)-4-ethylphthalazin-1(2H)-one]
IC50 [1]: 30 nM | IC50 [2]: 1.9 nM

Cc1nn(CC(O)CNC2Cc3ccccc3C2)c(=O)c2ccccc12 (centres unmarked) [Compound 1, 2-(3-((2,3-Dihydro-1H-inden-2-yl)amino)-2-hydroxypropyl)-4-methylphthalazin-1(2H)-one]
IC50 [1]: 4530 nM

Cc1nn(C[C@@H](O)CNC2Cc3ccccc3C2)c(=O)c2ccc(C(=O)N3C4CCC3COC4)cc12 [Compound 2, 6-(3-Oxa-8-azabicyclo[3.2.1]octane-8-carbonyl)-2-((S)-3-((2,3-dihydro-1H-Inden-2-yl)amino)-2-hydroxypropyl)-4-methylphthalazin-1(2H)-one]
IC50 [1]: 170 nM | IC50 [2]: 18 nM
